Results reported in patent US20060252723A1, “Combined therapy utilizing reduction of DNA methyltransferase expression and/or activity and interferon” (Methylgene, Inc. The Cleveland Clinic Foundation, priority 2005, published 2006).

Key:
RASSF1A = assay: RT-PCR for RASSF1A; type: cell-based, human; conditions: ACHN cells; data not shown
ACHN cells [1] = assay: TUNEL flow cytometric analysis of apoptosis; type: cell-based, human; conditions: for resistance to IFN-induced apoptosis after pretreatment: FIG. 2A; for apoptosis, agent alone: FIG. 2B
Description: After the indicated time of DNMT1 inhibition cells were plated at 5000 cells/cm^2 for TUNEL assay with IFNs added 16 hr after plating. Four to 5 days after IFN administration cells were harvested and processed according to the manufacturer's instructions for TUNEL flow cytometric analysis (BD Pharmingen, San Diego, Calif.).

ACHN cells [2] = assay: real-time RT-PCR for stat1, stat2 genes; type: cell-based, human
tumour xenograft models = assay: tumour xenograft models; type: in vivo; conditions: daily dosing compared to intermittent administration
ACHN cells [3] = assay: growth of ACHN cells (data not shown); type: cell-based, human
ACHN cells [4] = assay: cDNA array analysis (Affymetrix U133A); type: cell-based, human
From the text: To identify additional genes reactivated through DNA demethylation and of potential importance for the sensitization to IFN-induced apoptosis we performed cDNA array analysis with RNA harvested from ACHN cells 24 hr after the 8th DNMT1 AS transfection and 16 hr after 50 U/ml IFN β 1a treatment. RNA was harvested as mentioned above using Trizol (Invitrogen, Carlsbad, Calif.) method followed by transcription into cRNA, according to Affymetrix (Santa Clara, Calif.) recommendations for U133A array hybridization. Expression was analyzed using Affymetrix software.

DNMT1 protein = target: T1, DNMT1 protein (Homo sapiens, UniProt P26358); assay: DNMT1 protein immunoblot after DNMT1 AS or 5-AZA-dC treatment; type: cell-based; conditions: ACHN cells; 40 nM DNMT1 AS daily over 9 days or 200 nM 5-AZA-dC daily over 4 days; protein 4, 24, 48 hrs after last treatment
T1 construct: endogenous in cells; host or cells: ACHN renal cell carcinoma cells
T1 sequence (P26358 whole entry): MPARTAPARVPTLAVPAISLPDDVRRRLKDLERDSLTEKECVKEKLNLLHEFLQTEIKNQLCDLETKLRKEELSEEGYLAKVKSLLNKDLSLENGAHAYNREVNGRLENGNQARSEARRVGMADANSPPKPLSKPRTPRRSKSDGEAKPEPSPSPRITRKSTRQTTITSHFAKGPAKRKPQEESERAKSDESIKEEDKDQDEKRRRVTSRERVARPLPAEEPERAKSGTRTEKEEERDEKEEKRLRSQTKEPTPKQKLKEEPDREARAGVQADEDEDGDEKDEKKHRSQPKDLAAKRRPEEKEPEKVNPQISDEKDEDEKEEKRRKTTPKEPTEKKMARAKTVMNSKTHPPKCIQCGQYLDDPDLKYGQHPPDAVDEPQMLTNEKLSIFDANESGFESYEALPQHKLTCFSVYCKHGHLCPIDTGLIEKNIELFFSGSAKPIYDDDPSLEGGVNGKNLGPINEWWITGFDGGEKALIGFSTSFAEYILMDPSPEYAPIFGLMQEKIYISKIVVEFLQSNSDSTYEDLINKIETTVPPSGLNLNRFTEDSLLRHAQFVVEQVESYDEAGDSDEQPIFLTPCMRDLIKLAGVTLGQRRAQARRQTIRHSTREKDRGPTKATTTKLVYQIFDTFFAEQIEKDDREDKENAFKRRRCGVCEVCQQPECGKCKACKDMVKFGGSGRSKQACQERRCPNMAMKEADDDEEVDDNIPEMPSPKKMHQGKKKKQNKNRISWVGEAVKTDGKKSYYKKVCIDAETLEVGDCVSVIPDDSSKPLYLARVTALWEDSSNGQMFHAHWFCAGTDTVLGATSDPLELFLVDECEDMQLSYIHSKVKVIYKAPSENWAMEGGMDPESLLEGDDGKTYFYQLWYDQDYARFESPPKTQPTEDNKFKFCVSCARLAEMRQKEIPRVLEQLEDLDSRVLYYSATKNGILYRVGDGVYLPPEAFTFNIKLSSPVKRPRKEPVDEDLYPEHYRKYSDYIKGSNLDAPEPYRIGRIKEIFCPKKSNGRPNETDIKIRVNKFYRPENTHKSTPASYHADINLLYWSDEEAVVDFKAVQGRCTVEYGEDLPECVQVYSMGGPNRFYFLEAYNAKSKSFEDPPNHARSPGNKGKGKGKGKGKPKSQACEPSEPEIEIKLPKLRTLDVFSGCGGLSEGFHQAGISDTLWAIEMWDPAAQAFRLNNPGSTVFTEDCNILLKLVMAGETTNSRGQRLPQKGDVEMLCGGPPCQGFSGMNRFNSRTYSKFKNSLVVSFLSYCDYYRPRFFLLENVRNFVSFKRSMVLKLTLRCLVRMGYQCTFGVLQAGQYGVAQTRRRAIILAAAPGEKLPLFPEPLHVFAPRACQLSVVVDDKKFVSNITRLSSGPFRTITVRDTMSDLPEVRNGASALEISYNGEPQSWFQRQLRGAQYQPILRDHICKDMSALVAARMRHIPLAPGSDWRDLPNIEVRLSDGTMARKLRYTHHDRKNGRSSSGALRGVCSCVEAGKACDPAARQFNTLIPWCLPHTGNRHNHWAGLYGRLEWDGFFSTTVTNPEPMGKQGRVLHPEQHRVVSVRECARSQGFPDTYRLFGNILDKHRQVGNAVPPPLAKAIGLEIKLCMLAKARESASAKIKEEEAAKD
Description: ACHN Renal cell carcinoma cells were cultured at 37° C. in 5% CO2 using Minimum Essential Medium (GIBCO, Invitrogen, Carlsbad, Calif.) with 0.1 mM non-essential amino acids (GIBCO), 1.0 mM pyruvate (GIBCO), 10% fetal bovine serum, penicillin G (50 U/ml), and streptomycin (50 μg/ml). WM9 melanoma cells (13) were grown in RPMI medium (GIBCO) containing 10% fetal bovine serum, penicillin G (50 U/ml), and streptomycin (50 μg/ml) under the same incubator conditions.
To selectively downregulate DNMT1, cells were transfected with MG98 (MethylGene, Quebec, Canada), a second-generation 4×4 2′methyl phosphorothioate oligonucleotide antisense against the 3′ UTR of DNMT1 mRNA (5′-[…]-3) or mismatch (underlined) control oligonucleotide (5′-[…]-3′) (SEQ ID NO:40) at indicated concentrations starting one day after plating at 15000 cells/cm^2. Transfections were performed daily with 6.25 μg/ml Lipofectin (Invitrogen, Carlsbad, Calif.) in OptiMem (GIBCO, Invitrogen, Carlsbad, Calif.) over 4 hr. Before and after transfections cells were washed once with PBS. Every second day cells were replated at 15000 cells/cm^2 four hr after the preceding transfection. 5-AZA-dC (Sigma-Aldrich, St Louis, Mo.) stock solution (100 mM) in DMSO and working solutions for one time use in PBS (1 mM) were stored at −20° C. […]

caspase 3 = caspase 3 activity assay; type: cell-based, human; conditions: FIG. 3; pretreatment alone
[5] = Phase I studies of MG98, toxicity
RASSF1A promoter region = assay: methylation specific PCR of RASSF1A; type: cell-based, human; conditions: ACHN cells
Description: One microgram of genomic DNA, harvested with a blood DNA mini kit (Quiagen, Valencia, Calif.), was used for bisulfite modification with the CpGenome kit (Chemicon International, Temecula, Calif.) according to the manufacturer's instructions with final resuspension in 20 μl of 10 mM Tris/Ci, pH 8.5. Four μl of bisulfite modified DNA was used per 25 μl MSP reaction. Primers for RASSF1A MSP as published (15) were (5′ to 3′): M forward: GGG TTT TGC GAG AGC GCG (SEQ ID NO:41), M reverse: GCC AAG CGC AAA CAA TCG (SEQ ID NO:42), U forward: GGT TIT GTG AGA GTG TGT TTA G (SEQ ID NO:43), U reverse: AAACCAAACACAAACAATCAC (SEQ ID NO:44). PCR settings for methylated (M) primer pair were denaturation at 95° C. for 5 min, followed by 35 cycles with a 1 min denaturation step, 30 sec annealing at 60° C., and extension at 72° C. for 30 sec. Final extension after 35 cycles was at 72° C. for 4 min. For sequences specific for unmethylated (U) DNA settings were the same except for annealing at 55° C.

5′-TTAATGTAACCTAAGGTCAA-3′ (listed as DNA, chemistry not given here) [MM, mismatch control oligonucleotide]
amplification of full length RASSF1A cDNA (RASSF1A): no band
cells apoptotic on TUNEL staining (up to) (ACHN cells [1]; 5-AZA-dC over 24 days or oligonucleotide transfection over 6 to 8 days, then 50 U/ml IFN α or IFN β, 4-5 days after IFN): not
resistance to IFN-induced apoptosis after pretreatment (ACHN cells [1]): did not
apoptosis, agent alone (ACHN cells [1]): did not result in significant apoptosis

5′-UUCATGTCAGCCAAGGCCAC-3 (all phosphorothioate, sugars by position and methylation of C not given here; 2'-O-methyl gapmer) [MG98, second-generation 4×4 2′methyl phosphorothioate oligonucleotide antisense against the 3′ UTR of DNMT1 mRNA]
stat1 expression, fold change over untreated (ACHN cells [2]): 0.27 fold
stat2 expression, fold change over untreated (ACHN cells [2]): 1.05 fold
amplification of full length RASSF1A cDNA (RASSF1A): single band
anti-tumour activity (tumour xenograft models): greatest anti-tumour activity
growth (ACHN cells [3]): reduced
number of genes increased at least two-fold compared to the mismatch oligonucleotide (ACHN cells [4]; DNMT1 AS alone, data not shown): One hundred and thirty-seven
expression of genes known to be involved in IFN-induced apoptosis (ACHN cells [4]; Table 2): not significantly altered
reduction in DNMT1 expression (ACHN cells [4]; compared to mismatch oligonucleotide): 94%
expression of other DNMTs (ACHN cells [4]; compared to mismatch oligonucleotide, data not shown): without affecting expression of other DNMTs
increase of IFN-stimulated gene IF127 over MM treated cells (ACHN cells [4]; p<0.045): at least two-fold
Fold change in expression, Caspase 4 (ACHN cells [4]; relative to MM): 1.41 (MI) fold
Fold change in expression, HSXIAPAF1 (XAF1) (ACHN cells [4]; relative to MM): 3.36 (NS) fold
Fold change in expression, IRF1 (ACHN cells [4]; relative to MM): 1.32 (NS) fold
Fold change in expression, OAS1 (ACHN cells [4]; relative to MM): 0.80 (NS) fold
Fold change in expression, PRKR (PKR) (ACHN cells [4]; relative to MM): 0.71 fold
Fold change in expression, Stat1 (ACHN cells [4]; relative to MM): 0.60 fold
Fold change in expression, Stat2 (ACHN cells [4]; relative to MM): 0.68 (NS) fold
Fold change in expression, TNFSF10 (TRAIL/Apo2L) (ACHN cells [4]; relative to MM): 0.93 (NS) fold
DNMT1 protein (DNMT1 protein): suppressed up to 48 hrs
caspase 3 activity (caspase 3): increased caspase 3 activity
dose levels resulting in frequent adverse events ([5]; Phase I, 21-day infusion): above 80 mg/m^2/day
toxicity seen in nephrectomized patients ([5]; intermittent schedule, 160 mg/m^2/day is 44% below the dose concerned): grade 3 transaminitis
resistance to IFN-induced apoptosis after pretreatment (ACHN cells [1]): overcome
apoptosis, agent alone (ACHN cells [1]): did not result in significant apoptosis
methylation of RASSF1A promoter region (RASSF1A promoter region): led to demethylation

Nc1ncn([C@H]2C[C@H](O)[C@@H](CO)O2)c(=O)n1 [5-AZA-dC, 5-aza-deoxycytidine, reference compound]
stat1 expression, fold change over untreated (ACHN cells [2]): 0.57 fold
stat2 expression, fold change over untreated (ACHN cells [2]): 1.38 fold
DNMT1 protein (DNMT1 protein): suppressed up to 48 hrs
caspase 3 activity (caspase 3): increased caspase 3 activity
resistance to IFN-induced apoptosis after pretreatment (ACHN cells [1]): overcome
TUNEL positive (ACHN cells [1]; agent alone, no IFN, 5-AZA-dC 4 days): 20%
